The structures appear in SMILES notation. Where two headings read alike, the source gives them in different places.

In data set [1] the test system is primary mouse myoblasts. The experiment in a line: Fusion index of primary mouse myoblasts (MyHC immunostaining). The data set is classed as cell-based. On the procedure:
(§1) Isolation of and treatment of primary myoblasts. Primary mouse myoblasts were isolated from gastrocnemius muscle using trypsin-tissue dissociation. Briefly, muscle tissues were incubated in Trypsin B (0.25%, Biological Industries) and subjected to mechanical dissociation with a serological pipet. Supernatants were strained and centrifuged. Pellets were grown resuspended in BioAmf-2 media (Biological Industries, Israel) and plated on 10% Matrigel (BD Biosciences)-coated plates at 37° and 5% CO2. For all in vitro experiments, proliferation medium was Bio-Amf2 (Biological Industries, Israel) and Differentiation medium (DM) was DMEM 2% Horse Serum (HS) with 1% Pen/Strep. For fusion assays, cells were trypsinized with Trypsin C (0.05%, Biological Industries) and subjected to two rounds of preplating on uncoated plates to reduce the number of fibroblasts. Cells were plated at a density of 8×10^3 per well in 10% Matrigel-coated 96-well plates in proliferation medium for 24 hours. The following day, proliferation media was replaced either with proliferation media or with DM containing DMSO (Ctrl) or 1 μM ERK1/2 inhibitor (ERKi; SCH772984, Cayman Chemicals), […] RXR antagonist (RXRi; HX-531, Cayman Chemicals), […] Ryanodine receptor antagonist (RYRi; Dantrolene, Cayman Chemicals), 5 μM CaMKII inhibitor (CaMKIIi; KN93, Cayman Chemicals), or with DM for controls.
(§2) Immunofluorescence staining. First passage primary myoblasts isolated from various strains (indicated in figure legends) were plated in 96-well plates or chamber slides and treated as previously described. The cells were fixed with ice cold 4% PFA in PBS for 10 minutes, permeabilized with 0.5% Triton X-100 in PBS for 6 minutes, and blocked in PBS with 0.025% tween, 10% normal horse serum and 10% normal goat serum for 1 hour at room temperature. Primary antibody incubation was done in blocking buffer overnight at 4 degrees, with the following antibodies: Myosin Heavy Chain (MyHC, MF20, DSHB hybridoma supernatant 1:10, or MY-32 ABCAM ab51263 1:400), Myogenin (MYOG sc-13137 SCBT 1:200), pHistone 3 (PH3, ab47297 ABCAM 1:1000), Ki-67 (Cell Marque #275R), RYR (ab2868 ABCAM 1:100), and pCaMKII (SIGMA SAB4504356 1:100). Cells were washed 3 times in PBS with 0.025% tween and then incubated with appropriate secondary antibodies in PBS 1 hour. Where indicated, nuclei were either labeled with DAPI (SIGMA D9542, 5 ug/ml) or Hoechst 33342 (Thermo scientific #62249, 1:2000). Fixed cells at 24 hours post treatment with indicated inhibitors were imaged using the Nikon Eclipse Ti2 microscope (further described in microscopy section). All analysis was performed on at least 1000 nuclei. […]
Quantification of fusion index. Following immunostaining and imaging, a fusion index was quantified by manually identifying nuclei found in a MyHC positive cell with at least 2 nuclei. Then the values were expressed as a percentage of the total nuclei per field. Briefly, in Figures where fusion index is stratified into subgroups of fiber size, the nuclei number in MyHC positive cell was manually quantified in a given field and stratified into groups of mononucleated, bi-nucleated myotubes, myotubes with 3-10 nuclei and myotubes with greater than 10 nuclei. […] Fields were analyzed hourly, and nuclei per cell was quantified and stratified into mononucleated, bi-nucleated, tri-nucleated and cells with ≥4 nuclei.

Data set [2] concerns primary mouse myoblasts. Nature of the data set: MYOG positive nuclei in primary mouse myoblasts (immunofluorescence). The data set is classed as cell-based. The following applies: co-treatment with 1 μM ERKi, 24 hrs; HX531 20 uM, Dantrolene 50 uM, BAPTA-AM 10 uM, KN93 5 uM. On the procedure:
as §1
Immunofluorescence staining. First passage primary myoblasts isolated from various strains (indicated in figure legends) were plated in 96-well plates or chamber slides and treated as previously described. The cells were fixed with ice cold 4% PFA in PBS for 10 minutes, permeabilized with 0.5% Triton X-100 in PBS for 6 minutes, and blocked in PBS with 0.025% tween, 10% normal horse serum and 10% normal goat serum for 1 hour at room temperature. Primary antibody incubation was done in blocking buffer overnight at 4 degrees, with the following antibodies: Myosin Heavy Chain (MyHC, MF20, DSHB hybridoma supernatant 1:10, or MY-32 ABCAM ab51263 1:400), Myogenin (MYOG sc-13137 SCBT 1:200), pHistone 3 (PH3, ab47297 ABCAM 1:1000), Ki-67 (Cell Marque #275R), RYR (ab2868 ABCAM 1:100), and pCaMKII (SIGMA SAB4504356 1:100). Cells were washed 3 times in PBS with 0.025% tween and then incubated with appropriate secondary antibodies in PBS 1 hour. Where indicated, nuclei were either labeled with DAPI (SIGMA D9542, 5 ug/ml) or Hoechst 33342 (Thermo scientific #62249, 1:2000). Fixed cells at 24 hours post treatment with indicated inhibitors were imaged using the Nikon Eclipse Ti2 microscope (further described in microscopy section). All analysis was performed on at least 1000 nuclei. For fixed cells following the timecourse with ERKi or DM (FIG. 1B), images were captured with an inverted Olympus IX83 microscope (further details in microscopy section). All imaging analysis were performed on at least 1000 cells.

In data set [3] the test system is primary mouse myoblasts. The experiment in a line: qRT-PCR gene expression in primary mouse myoblasts. The data set is classed as cell-based. On the procedure:
Quantitative real-time PCR (qRT-PCR). Total RNA was isolated using Tri-Reagent (SIGMA) according to the manufacturer's instructions. cDNA was synthesized with the High Capacity cDNA Reverse Transcription Kit (Applied Biosystems according to the manufacturer's instructions. qRT-PCR was performed with SYBR green PCR Master Mix (Applied Biosystems) using the StepOnePlus Real-time PCR system (Applied Biosystems). Values for specific genes were normalize to either Gapdh or Hprt housekeeping control as indicated in Figure legend. Expression was calculated using the ddCT method.
First passage primary mouse derived myoblast were seeded in proliferation media, in equal number in 12-well tissue culture plates that were precoated with 10% Matrigel solution. Following 24 hours to allow for complete attachment, culture media was washed and replaced either with fresh proliferation media (PM), PM supplemented with 1 uM SCH 772984 (ERKi) or differentiation media (DM). After 24 hrs, cells were lysed and RNA was collected. Gene expression analysis was carried out using SYBR green qRT-PCR analysis.

Data set [4] relates to primary mouse myoblasts. Nature of the data set: Proliferation markers KI-67 and pH3 staining in primary mouse myoblasts. It is filed as cell-based. The following applies: co-treatment of ERKi with CaMKIIi. On the procedure:
as §2

The next data set deals with CaMKII. Nature of the data set: Western blot of CaMKII activation (p-CaMKII T287) in myoblasts. The data set is classed as cell-based, mouse. The note with it: co-treatment with ERKi and 5 uM KN93, 24 hrs. How it is done:
Western Blot analysis. Cultured cells and whole tissues extracts were prepared with RIPA buffer supplemented with protease inhibitor cocktail (SIGMA P8340), and phosphatase inhibitor cocktails (SIGMA P5726 and P0044). Western blotting was performed using the Mini-PROTEAN Tetra Cell electrophoresis system, and transferred to PVDF membranes. The following primary antibodies concentrations were used p-CAMKII 1:1000 (Abcam ab182647), CaMKII 1:1000 (Cell Signaling 3362), GAPDH 1:10,000 (Abcam ab181602), p-ERK1/2 1:20,000 (SIGMA M9692), ERK1/2 1:40,000 (SIGMA), Myosin Heavy Chain (MF-20 DSHB hybridoma supernatant 1:100) Horseradish peroxidase conjugated secondary anti-mouse, anti-rabbit or anti-goat was used to detect proteins (Jackson Immunology). Western blots were imaged using the Chemidoc Multiplex system (Bio-rad).
(Immunoblotting shows a protein as a band on a membrane.)

Data set [5] deals with primary mouse myoblasts. Nature of the data set: Cell motility of myoblasts. The note with it: co-treatment with ERKi and CaMKIIi. It is filed as cell-based.
Data set [6] can be described thus: Risk categorization of cell culture media ingredients. From the text: Category 1: These cell culture media components are food ingredients/additives that are GRAS or permitted by federal regulation without limitation on use. Exemplary compounds in this category include innocuous ingredients such as sugars, pH buffers, water soluble vitamins, and common antioxidants such as tocopherols.
(§3) Category 2: These cell culture media components are common dietary nutrients and are anticipated to have GRAS status for food use or be permitted by regulation for addition to food. Examples of such compounds include most of the inorganic salts and macronutrients that are present within the cell culture media. […] Majority of nutrients present within the poultry cell-based meat may be readily measured using common validated methods for food composition testing. Batch analyses of multiple lots of the finished product may be obtained to validate the above assumptions. In some instances, consideration of established safe levels (e.g., ADI, UL) derived from a relevant authoritative body (e.g., U.S. FDA, EFSA, JECFA, FSANZ, U.S. EPA) may be leveraged to support safety. If comparisons of anticipated dietary intakes relative to an authoritative reference intake value is used, consideration of additive intakes from all dietary sources may be considered. In the absence of an authoritative reference intake value, published NOAELs from animal toxicology studies may be used to evaluate safety using standard scientific procedures for food safety evaluation. A margin of exposure (MoE) of 100-fold or greater between the NOAEL and estimated dietary intakes from food exposures is typically considered adequate to support safety. in situations where the MoE is <100-fold, additional measures for further reduction of the media component may be necessary, or further characterization of intraspecies/interspecies differences in metabolism may be necessary. These situations also require careful consideration of the regulatory status on a case-by basis (e.g., premarket approval as a food additive or GRAS evaluation required).
For example, situations where the compound is not detectable in finished product or is present at equivalent levels in comparator foods, compounds that are thermo-labile and will be digested during cooking, and/or compounds that are expected to be digested to innocuous compounds following ingestion. Examples of compounds meeting the aforementioned conditions would include recombinant growth factors and serum components. For Category 3 substances a final consideration in the safety assessment process may involve hazard characterization of the potential for a substance to produce toxic biological effects outside of the endpoints measured in a sub-chronic rat toxicity study. Substances with biological activity may require additional hazard characterization related to reproductive and developmental toxicity, or immunotoxicity. Considerations for allergenicity, biological effects in humans (e.g., effects on blood pressure), and synergistic effects with other media components also may be evaluated. […] Examples of category 3 components include recombinant proteins and animal serum.

The nature of data set [7]: Margin of estimated intake below NOAEL of rat toxicity study. The data set is classed as in vivo.
Description: as §3

Data set [8] in a line: Maximum estimated dietary exposure to media ingredients per 100 g serving. The following applies: assumption of complete transfer of media components to the finished product on a wt/wt basis.
The mark [9] stands for this setting: cell culture media ingredient used during meat production.

On to `CC(=O)OCOC(=O)CN(CC(=O)OCOC(C)=O)c1ccccc1OCCOc1ccccc1N(CC(=O)OCOC(C)=O)CC(=O)OCOC(C)=O` [BAPTA-AM], for which, in the data set on primary mouse myoblasts [1] (co-treatment with ERKi and BAPTA-AM (10 uM per FIG. 2B)), the “Reduction of ERKi-induced fusion” value is given as 81%. In the data set on primary mouse myoblasts [2], the “Differentiation (percent of MYOG positive nuclei) on co-treatment with ERKi” value is listed as “without affecting early differentiation”.

Take `O=C1CN(/N=C/c2ccc(-c3ccc([N+](=O)[O-])cc3)o2)C(O)=N1` [Dantrolene]: the “Reduction of ERKi-induced fusion” value with primary mouse myoblasts [1] (co-treatment with ERKi and 50 uM Dantrolene) was found to be 60%. In addition, in the data set on primary mouse myoblasts [2], the “Differentiation (percent of MYOG positive nuclei) on co-treatment with ERKi” value is listed as “without affecting differentiation”.

For the molecule `CN1c2ccc([N+](=O)[O-])cc2N=C(c2ccc(C(=O)O)cc2)c2cc3c(cc21)C(C)(C)CCC3(C)C` [HX531], the “Suppression of ERKi-induced fusion” value in the data set with primary mouse myoblasts [1] (co-treatment with ERKi and 20 uM HX531, 24 hours) is 47%. Also, in the data set with primary mouse myoblasts [2], the “Differentiation (percent of MYOG positive nuclei) on co-treatment with ERKi” value is “without affecting differentiation”. The “Ryr1 and Ryr3 mRNA expression” value in the data set with primary mouse myoblasts [3] (co-treatment with ERKi and RXRi, 24 hours post treatment) is listed as “downregulation”.

For the molecule `COc1ccc(S(=O)(=O)N(CCO)c2ccccc2CN(C)C/C=C/c2ccc(Cl)cc2)cc1` [KN93], in the data set with primary mouse myoblasts [1] (co-treatment with ERKi and 5 uM KN93, bi- and tri-nucleated MyHC+ cells maintained), the “Formation of polynucleated myotubes” value is recorded as “suppressed”. The “Differentiation (percent of MYOG positive nuclei) on co-treatment with ERKi” value with primary mouse myoblasts [2] is “remained unaffected”. The “ERKi-induced elevation of Mymk expression” value in the data set on primary mouse myoblasts [3] (co-treatment with ERKi and CaMKIIi) is “partially suppressed”. Also, the “Cell cycle arrest (pH3 staining, p21 and p27 expression) compared to ERKi alone” value in the data set on primary mouse myoblasts [4] is “did not affect cell cycle arrest”. Besides, the “CaMKII activation (p-CaMKII T287)” value in the data set on CaMKII is given as “suppressed CaMKII activation”. Also, the “Cell motility compared to ERKi-treated cells” value with primary mouse myoblasts [5] is listed as “unchanged”.

Consider `NCCO` [MONOETHANOLAMINE], for which the “Risk Assessment Category” value in data set [6] is given as 2. In addition, the “Intakes for a 65 kg adult below NOAEL” value in data set [7] (rat NOAEL) is on record as “kg adult are 128 fold”. Also, the “Maximum Estimated Exposure per 100 g serving” value in [8] is listed as 160 mg.

Regarding `O=[Se]([O-])[O-].[Na+].[Na+]` [SODIUM SELENITE (ANHY)], the “Risk Assessment Category” value in data set [6] (setting [9]) was determined as 2. Also, the “Intakes for a 65 kg adult below NOAEL” value in [7] (13 week rat NOAEL) is recorded as “are 133-fold below 13”. The “Maximum Estimated Exposure per 100 g serving” value in data set [8] is 0.19 mg.

For `O.O.O.O.O.O.O=C([O-])CCC(=O)[O-].[Na+].[Na+]` [SODIUM SUCCINATE-2Na 6H20], the “Risk Assessment Category” value in data set [6] (setting [9]) was found to be 2. The “Intakes for a 65 kg adult below NOAEL” value in data set [7] (NOAEL from 2 year rat study) is listed as “are >1000 fold below”. The “Maximum Estimated Exposure per 100 g serving” value in data set [8] was 40 mg.

Regarding `O=C(O)CCC(=O)O` [SUCCINIC ACID], the “Intakes for a 65 kg adult below NOAEL” value in data set [7] (NOAEL from 2 year rat study) is “adult are 257-fold”. Further, in data set [8], the “Maximum Estimated Exposure per 100 g serving” value was 200 mg.

The values above are taken from patent US20240074473A1, “METHOD FOR INDUCING HYPERTROPHIC MUSCLE FIBERS FOR INDUSTRIAL MEAT PRODUCTION” (Yeda Research and Development Co. Ltd., priority 2021, published 2024).
